Results taken from PubChem BioAssay (NCI).
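The compound was tested at five concentrations on cells cultured in 96-well plates, with a 48-hour exposure period. TGI is the concentration that stops growth completely.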

Legend:
Assay in all cases: NCI tumour cell line growth inhibition, 48 h
786-0 renal = test system: 786-0 renal
A549 NSCLC = test system: A549 NSCLC
ACHN renal = test system: ACHN renal
BT-549 breast = test system: BT-549 breast
CCRF-CEM leukemia = test system: CCRF-CEM leukemia
COLO 205 colon = test system: COLO 205 colon
DU-145 prostate = test system: DU-145 prostate
EKVX NSCLC = test system: EKVX NSCLC
HCC-2998 colon = test system: HCC-2998 colon
HCT-116 colon = test system: HCT-116 colon
HCT-15 colon = test system: HCT-15 colon
HL-60(TB) leukemia = test system: HL-60(TB) leukemia
HOP-62 NSCLC = test system: HOP-62 NSCLC
HS 578T breast = test system: HS 578T breast
IGROV1 ovarian = test system: IGROV1 ovarian
K-562 leukemia = test system: K-562 leukemia
KM12 colon = test system: KM12 colon
M14 melanoma = test system: M14 melanoma
MCF7 breast = test system: MCF7 breast
MDA-MB-231 breast = test system: MDA-MB-231 breast
MDA-MB-435 = test system: MDA-MB-435
MDA-N = test system: MDA-N
MOLT-4 leukemia = test system: MOLT-4 leukemia
NCI-H226 lung = test system: NCI-H226 lung
NCI-H23 lung = test system: NCI-H23 lung
NCI-H460 lung = test system: NCI-H460 lung
NCI-H522 lung = test system: NCI-H522 lung
NCI/ADR-RES ovarian = test system: NCI/ADR-RES ovarian
OVCAR-3 ovarian = test system: OVCAR-3 ovarian
OVCAR-4 ovarian = test system: OVCAR-4 ovarian
OVCAR-8 ovarian = test system: OVCAR-8 ovarian
PC-3 prostate = test system: PC-3 prostate
RPMI-8226 leukemia = test system: RPMI-8226 leukemia
RXF 393 renal = test system: RXF 393 renal
SF-268 CNS = test system: SF-268 CNS
SF-295 CNS = test system: SF-295 CNS
SF-539 CNS = test system: SF-539 CNS
SK-MEL-28 melanoma = test system: SK-MEL-28 melanoma
SK-MEL-5 melanoma = test system: SK-MEL-5 melanoma
SK-OV-3 ovarian = test system: SK-OV-3 ovarian
SN12C renal = test system: SN12C renal
SNB-19 CNS = test system: SNB-19 CNS
SNB-75 CNS = test system: SNB-75 CNS
SR leukemia = test system: SR leukemia
SW-620 colon = test system: SW-620 colon
T-47D breast = test system: T-47D breast
TK-10 renal = test system: TK-10 renal
U251 CNS = test system: U251 CNS
UACC-257 melanoma = test system: UACC-257 melanoma
UACC-62 melanoma = test system: UACC-62 melanoma
UO-31 renal = test system: UO-31 renal

`O=C1/C(=C/c2ccc(Cl)cc2)Oc2cc(O)ccc21` showed a TGI (786-0 renal) of over 100 µM, a TGI (A549 NSCLC) of 91.7 µM and a TGI (ACHN renal) of 61.2 µM. The TGI (BT-549 breast) was over 100 µM, the TGI (CCRF-CEM leukemia) was 52 µM and the TGI (COLO 205 colon) was over 100 µM. For the same compound, the TGI (DU-145 prostate) was over 100 µM, the TGI (EKVX NSCLC) was 94.3 µM and the TGI (HCC-2998 colon) was over 100 µM. For the same compound, the TGI (HCT-116 colon) was over 100 µM, the TGI (HCT-15 colon) was over 100 µM and the TGI (HL-60(TB) leukemia) was 34.9 µM. The TGI (HOP-62 NSCLC) was over 100 µM, the TGI (HS 578T breast) was 46.6 µM and the TGI (IGROV1 ovarian) was over 100 µM. For the same compound, the TGI (K-562 leukemia) was 38.5 µM, the TGI (KM12 colon) was over 100 µM and the TGI (M14 melanoma) was over 100 µM. The TGI (MCF7 breast) was over 100 µM, the TGI (MDA-MB-231 breast) was over 100 µM and the TGI (MDA-MB-435) was over 100 µM. The TGI (MDA-N) was over 100 µM, the TGI (MOLT-4 leukemia) was 48.1 µM and the TGI (NCI-H226 lung) was 62.3 µM. For the same compound, the TGI (NCI-H23 lung) was over 100 µM, the TGI (NCI-H460 lung) was 89.3 µM and the TGI (NCI-H522 lung) was 70.7 µM. For the same compound, the TGI (NCI/ADR-RES ovarian) was 79.3 µM, the TGI (OVCAR-3 ovarian) was 96.1 µM and the TGI (OVCAR-4 ovarian) was over 100 µM. For the same compound, the TGI (OVCAR-8 ovarian) was over 100 µM, the TGI (PC-3 prostate) was 89.7 µM and the TGI (RPMI-8226 leukemia) was over 100 µM. The TGI (RXF 393 renal) was over 100 µM, the TGI (SF-268 CNS) was over 100 µM and the TGI (SF-295 CNS) was over 100 µM. The TGI (SF-539 CNS) was 61.3 µM, the TGI (SK-MEL-28 melanoma) was over 100 µM and the TGI (SK-MEL-5 melanoma) was 51.5 µM. For the same compound, the TGI (SK-OV-3 ovarian) was 78.8 µM, the TGI (SN12C renal) was over 100 µM and the TGI (SNB-19 CNS) was 87.4 µM. The TGI (SNB-75 CNS) was over 100 µM, the TGI (SR leukemia) was 47.1 µM and the TGI (SW-620 colon) was over 100 µM. For the same compound, the TGI (T-47D breast) was over 100 µM, the TGI (TK-10 renal) was 96.8 µM and the TGI (U251 CNS) was 76.1 µM. The TGI (UACC-257 melanoma) was 90.1 µM, the TGI (UACC-62 melanoma) was over 100 µM and the TGI (UO-31 renal) was 47.1 µM.
